According to US20230339919A1, “BENZO OXYGEN-CONTAINING HETEROCYCLIC COMPOUNDS AND MEDICAL APPLICATION THEREOF” (AB PHARMA LTD., priority 2020, published 2023):
Where two headings read alike, the source gives them in different places.

Columns and labels:
[1] = biological target: T1, GPR40 (Homo sapiens, UniProt O14842); test: GPR40 agonist activity, FLIPR calcium assay in CHO-K1/GPR40 cells; type: cell-based
T1 construct: expressed in transfected cells; host or cells: CHO-K1
Description: Inoculate CHO-K1/GPR40 cells in 384-well plates at a density of 10,000 cells/well. Cells were incubated at 37° C. for 24 hours in a 5% CO2 incubator. After the experiment, discard the cell culture medium, quickly add […] of 1× FLIPR® Calcium 6 dye containing 2.5 mM/Probenecid to each well and incubate at 37° C. for 2 hours protected from light. For the determination, different concentrations of drug ([…]) were added to the wells and the fluorescence values were read. The fluorescence excitation wavelength was 494 nm and emission wavelength was 516 nm. FLIPR instrument data, EC50 was derived from the formula Y=Bottom+(Top−Bottom)/(1+(EC50/X)^HillSlope).

[2] = Ames assay
[3] = Acute Toxicity Study (MTD) by gavage in healthy mice; type: in vivo; details: mouse, in vivo, po, 600 mg/kg
[4] = tested on: healthy mice; test: as above; type: in vivo; details: mouse, in vivo, 600 mg/kg, 5 days
[5] = biological target: hERG (Homo sapiens, UniProt Q12809); test: hERG assay
[6] = biological target: BSEP bile salt transporter (Homo sapiens, UniProt O95342); test: BSEP (Bile Salt Export Pump) assay, taurocholic acid uptake by BSEP vesicles, LC/MS/MS; type: in vitro ADME
Description: In this experiment, we performed a preliminary study on the inhibition of the uptake of the substrate taurocholic acid (TCA) by the BSEP bile salt transporter by LC/MS/MS. The BSEP protein microvesicles with reverse uptake ability were obtained by transfecting Hi5 cells with the BSEP gene, which is capable of TCA uptake and uptake of taurocholic acid. The principle of this experiment is to perform substrate uptake by BSEP protein microcapsules in the presence of energy ATP, the substrate TCA and the candidate compound to be tested, after a certain transit time, the energy, substrate and candidate compound were completely washed out of the microvesicle, and the absorbed substrate TCA was released by lysis of the microvesicle. […] The starting concentration of the sample was 100 mM, diluted in 2-fold gradient with Bravo apparatus, with 11 concentration gradients; the lowest point concentration was 97.65 μM. • 3. Control compound (Glyburide) starting at 20 mM, diluted in 2-fold gradient with Bravo instrument, with 11 concentration gradients; the lowest point concentration was 19.53 μM. • 4. 300 nl of compound was transferred to the middle plate using the ECHO autosampler. • 5. Positive control (HPE) wells and negative control (ZPE) wells were also transferred 300 nl DMSO each. […] Add 14.7 μl of ATP buffer to the corresponding wells of the compound and ZPE, respectively. • 2. Add 14.7 μl of AMP buffer to the corresponding wells of the HPE. • 3. Shake the plate at 25 degrees C. for 10 minutes. • 4. […] Immediately add 5 ul of 0.5M EDTA solution to all wells, and then add 65 μl of Buffer B. All reactions are completed. • 6. Transfer […] of liquid from the end of reaction compound plate to the filter plate using the spiking apparatus. • 7. After placing the liquid receiving plate under the filter plate, use a centrifuge to remove the liquid and discard the liquid received in the receiving plate. • 8. Add 90 μl of buffer B to the filter plate and repeat step 7. Repeat steps 7 and 8 to wash the filter plate a total of three times. • 9. Let the filter plate dry overnight. • 10. Add 81 μl of 80% methanol/water solution to the filter plate the next day. • 11. Apply membrane to the filter plate and vibrate the plate for 15 minutes. • 12. Place a new liquid receiver plate under the filter plate and centrifuge for 5 min to filter all the liquid from the filter plate into the receiver plate. • 13. Add 13.5 μl of internal standard solution to each well of the liquid receiver plate and seal the plate with a sealing film. • 14. Using LC/MS/MS, detect the content of taurocholic acid in the receiver plate.

[7] = GPR40 agonist activity range (EC50), CHO-K1/GPR40 cells, read-out: GPR40 activity
[8] = read-out: GPR40 activity (EC50)

T1 sequence (O14842 whole entry): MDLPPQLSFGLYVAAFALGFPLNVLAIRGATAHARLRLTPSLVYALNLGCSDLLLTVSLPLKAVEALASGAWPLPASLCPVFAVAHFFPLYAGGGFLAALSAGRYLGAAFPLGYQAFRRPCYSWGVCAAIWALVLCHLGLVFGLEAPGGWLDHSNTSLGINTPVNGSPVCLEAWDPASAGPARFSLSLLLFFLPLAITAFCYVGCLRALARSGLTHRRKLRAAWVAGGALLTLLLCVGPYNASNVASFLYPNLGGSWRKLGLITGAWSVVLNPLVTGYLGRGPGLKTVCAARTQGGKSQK
Sequence of BSEP bile salt transporter (O95342 whole entry): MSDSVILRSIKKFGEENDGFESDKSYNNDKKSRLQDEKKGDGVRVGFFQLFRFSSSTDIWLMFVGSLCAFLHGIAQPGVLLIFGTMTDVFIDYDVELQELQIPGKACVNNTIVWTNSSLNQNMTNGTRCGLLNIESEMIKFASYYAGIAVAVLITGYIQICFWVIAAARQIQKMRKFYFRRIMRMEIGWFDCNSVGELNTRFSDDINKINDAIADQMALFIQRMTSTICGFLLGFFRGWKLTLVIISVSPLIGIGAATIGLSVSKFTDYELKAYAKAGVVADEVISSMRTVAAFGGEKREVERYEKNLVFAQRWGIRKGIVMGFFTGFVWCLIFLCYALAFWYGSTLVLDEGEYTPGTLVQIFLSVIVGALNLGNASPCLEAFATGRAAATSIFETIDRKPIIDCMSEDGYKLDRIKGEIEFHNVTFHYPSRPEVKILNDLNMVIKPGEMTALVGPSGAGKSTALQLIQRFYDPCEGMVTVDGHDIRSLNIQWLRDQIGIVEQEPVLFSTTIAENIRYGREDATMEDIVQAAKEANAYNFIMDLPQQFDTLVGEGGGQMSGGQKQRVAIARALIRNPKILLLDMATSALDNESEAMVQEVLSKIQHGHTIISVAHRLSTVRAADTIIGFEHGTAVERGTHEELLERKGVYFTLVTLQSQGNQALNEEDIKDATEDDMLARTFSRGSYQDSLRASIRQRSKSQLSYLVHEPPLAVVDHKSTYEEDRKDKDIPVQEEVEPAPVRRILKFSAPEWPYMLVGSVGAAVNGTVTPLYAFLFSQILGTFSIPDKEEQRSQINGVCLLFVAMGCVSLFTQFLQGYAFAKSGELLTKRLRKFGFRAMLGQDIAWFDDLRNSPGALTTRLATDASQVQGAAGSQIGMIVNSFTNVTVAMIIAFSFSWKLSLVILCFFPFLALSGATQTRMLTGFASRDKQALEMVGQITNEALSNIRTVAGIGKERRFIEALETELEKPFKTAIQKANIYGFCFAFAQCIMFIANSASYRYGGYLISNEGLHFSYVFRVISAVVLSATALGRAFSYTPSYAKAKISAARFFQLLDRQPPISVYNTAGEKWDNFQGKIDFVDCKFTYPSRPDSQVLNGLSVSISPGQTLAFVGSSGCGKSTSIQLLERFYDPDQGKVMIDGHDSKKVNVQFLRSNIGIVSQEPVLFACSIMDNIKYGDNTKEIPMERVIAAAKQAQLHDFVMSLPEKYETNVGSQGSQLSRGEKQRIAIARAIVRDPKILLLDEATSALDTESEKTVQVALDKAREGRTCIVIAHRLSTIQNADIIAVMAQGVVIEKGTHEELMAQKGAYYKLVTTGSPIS
Sequence of hERG (Q12809 whole entry): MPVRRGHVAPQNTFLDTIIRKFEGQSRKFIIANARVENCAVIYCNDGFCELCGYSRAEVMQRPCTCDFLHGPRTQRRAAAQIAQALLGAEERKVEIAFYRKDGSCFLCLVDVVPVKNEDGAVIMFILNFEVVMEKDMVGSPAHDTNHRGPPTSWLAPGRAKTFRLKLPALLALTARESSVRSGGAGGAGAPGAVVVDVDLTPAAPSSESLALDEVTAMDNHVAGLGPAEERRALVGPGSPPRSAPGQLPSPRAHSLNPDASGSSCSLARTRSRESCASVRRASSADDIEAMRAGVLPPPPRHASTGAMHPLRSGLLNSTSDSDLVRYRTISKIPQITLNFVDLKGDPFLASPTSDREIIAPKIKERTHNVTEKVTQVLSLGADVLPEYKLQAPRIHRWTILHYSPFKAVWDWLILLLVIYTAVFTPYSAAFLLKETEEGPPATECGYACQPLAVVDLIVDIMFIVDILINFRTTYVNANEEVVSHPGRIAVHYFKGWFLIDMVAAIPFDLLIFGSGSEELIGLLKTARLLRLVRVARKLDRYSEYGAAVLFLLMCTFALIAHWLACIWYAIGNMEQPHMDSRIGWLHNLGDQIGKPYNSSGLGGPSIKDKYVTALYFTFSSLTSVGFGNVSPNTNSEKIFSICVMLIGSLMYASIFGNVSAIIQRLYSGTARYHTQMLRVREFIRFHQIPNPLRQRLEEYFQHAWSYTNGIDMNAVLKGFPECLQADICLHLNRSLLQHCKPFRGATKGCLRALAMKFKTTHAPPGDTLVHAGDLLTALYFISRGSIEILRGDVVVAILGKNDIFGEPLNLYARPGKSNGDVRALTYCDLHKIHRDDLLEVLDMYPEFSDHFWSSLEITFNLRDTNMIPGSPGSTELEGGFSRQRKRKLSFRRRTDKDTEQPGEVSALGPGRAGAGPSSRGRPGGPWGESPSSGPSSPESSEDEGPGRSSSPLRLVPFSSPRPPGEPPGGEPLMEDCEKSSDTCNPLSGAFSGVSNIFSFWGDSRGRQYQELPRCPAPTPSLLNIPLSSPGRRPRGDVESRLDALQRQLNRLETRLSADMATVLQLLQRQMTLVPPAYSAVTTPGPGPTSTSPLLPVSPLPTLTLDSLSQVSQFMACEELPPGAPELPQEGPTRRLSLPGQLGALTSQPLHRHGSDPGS

Structure (SMILES) | EC50 [1, 7] [µM] | further results
O=C(O)CC1COc2cc(OCc3cc(Cl)cc4c3OC(F)(F)O4)ccc21 (stereo not shown) [IIb-23] | 0.01 to 0.1 | 
CC(C)(C)NC(=O)Nc1cc(COc2ccc3c(c2)OC[C@H]3CC(=O)O)c2c(c1)OCO2 [IIb-49] | > 0.1 | 
O=C(O)CC1COc2cc(OCc3cccc4c3OC(F)(F)O4)c(F)cc21 (stereo not shown) [IIb-29] | > 0.1 | 
CC(C)(CC(=O)O)c1ccc(OCc2cc(F)cc3c2OCO3)cc1 [IIb-36] | > 0.1 | 
CC1(C)Oc2cc(Br)cc(COc3ccc4c(c3)OCC4CC(=O)O)c2O1 (stereo not shown) [IIb-22] | > 0.1 | 
O=C(O)C(F)C1COc2cc(OCc3cccc4c3OC(F)(F)O4)ccc21 (stereo not shown) [IIb-33] | 0.01 to 0.1 | 
CC(C)(C)OC(=O)Nc1cc(COc2ccc3c(c2)CCC3CC(=O)O)c2c(c1)OC(F)(F)O2 (stereo not shown) [IIb-63] | 0.01 to 0.1 | 
CC(C)(C)OC(=O)Nc1cc(COc2ccc3c(c2)OCC3C(F)C(=O)O)c2c(c1)OCO2 (stereo not shown) [IIb-59] | 0.01 to 0.1 | 
O=C(O)C[C@@H]1COc2cc(OCc3cccc4c3OC(F)(F)O4)ccc21 [IIb-18] | < 0.01 | Ames assay result [2]: no relevant side effects; LD50 at 5 days [3]: > 600 mg/kg; survival rate of the mice after administration [4]: 100%; EC50 ([1]; Table 4, read-out: GPR40 Activity (hEC50)): 0.0079 µM; EC50 [1, 8]: < 0.01 µM; IC50 [5]: > 30 µM; IC50 ([6]; inhibition of TCA uptake by BSEP vesicles, read-out: Potential inhibitory side effects BSEP (IC50)): 162 µM; IC50 ([6]; read-out: BSEP): > 25 µM
CC(C)(C)C(=O)Nc1cc(COc2ccc3c(c2)OC[C@H]3CC(=O)O)c2c(c1)OCO2 [IIb-50] | > 0.1 | 
O=C(O)CC1COc2cc(OCc3cc(Br)cc4c3OCCO4)ccc21 (stereo not shown) [IIb-09] | > 0.1 | 
CC#CC(CC(=O)O)c1ccc(OCc2cccc3c2OC(F)(F)O3)cc1 (stereo not shown) [IIb-62] | 0.01 to 0.1 | 
O=C(O)CC1COc2cc(OCc3cc(Cl)cc4c3OCCO4)ccc21 (stereo not shown) [IIb-10] | > 0.1 | 
O=C(O)CC1COc2c1cc(Br)c(OCc1cccc3c1OC(F)(F)O3)c2Br (stereo not shown) [IIb-27] | > 0.1 | 
O=C(O)C(F)(F)C1COc2cc(OCc3cccc4c3OC(F)(F)O4)ccc21 (stereo not shown) [IIb-34] | > 0.1 | 
O=C(O)C(F)C1COc2cc(OCc3cc(Cl)cc4c3OCO4)ccc21 (stereo not shown) [IIb-58] | 0.01 to 0.1 | 
CC(C)(C)OC(=O)Nc1cc(COc2ccc3c(c2)OC[C@H]3CC(=O)O)c2c(c1)OC(F)(F)O2 [IIb-46] | < 0.01 | EC50 [1, 8]: < 0.01 µM
Cc1cc(OCCCS(C)(=O)=O)cc(C)c1-c1cc(COc2ccc3c(c2)OC[C@H]3CC(=O)O)c2c(c1)OCO2 [IIb-38] | 0.01 to 0.1 | 
COC(=O)Nc1cc(COc2ccc3c(c2)OC[C@H]3CC(=O)O)c2c(c1)OCO2 [IIb-47] | > 0.1 | 
O=C(O)CC1COc2cc(OCc3cc(Br)cc4c3OC(F)(F)O4)ccc21 (stereo not shown) [IIb-21] | 0.01 to 0.1 | 
O=C(O)C[C@@H]1COc2cc(OCc3cc(C(F)(F)F)cc4c3OC(F)(F)O4)ccc21 [IIb-54] | 0.01 to 0.1 | 

Continued, in another order:

EC50 [1, 7] [µM] | Structure (SMILES) | further results
0.01 to 0.1 | O=C(O)CC1COc2cc(OCc3cccc4c3OC(F)(F)O4)ccc21 (stereo not shown) [IIb-17] | 
> 0.1 | O=C(O)CC1COc2cc(OCc3ccc(F)c4c3OCO4)ccc21 (stereo not shown) [IIb-12] | 
0.01 to 0.1 | O=C(O)C[C@@H]1COc2cc(OCc3cc(C(F)(F)F)cc4c3OCO4)ccc21 [IIb-53] | 
0.01 to 0.1 | O=C(O)CC1COc2cc(OCc3cc(C(F)(F)F)cc4c3OCO4)ccc21 (stereo not shown) [IIb-14] | 
0.01 to 0.1 | O=C(O)C[C@@H]1COc2cc(OCc3cc(F)cc4c3OCO4)ccc21 [IIb-07] | 
> 0.1 | O=C(O)C[C@@H]1COc2cc(OCc3cc(OC(F)(F)F)cc4c3OCO4)ccc21 [IIb-52] | 
> 0.1 | O=C(O)CC1COc2cc(OCc3c(Br)ccc4c3OCO4)ccc21 (stereo not shown) [IIb-03] | 
> 0.1 | O=C(O)CC1COc2cc(OCc3cccc4c3OCCO4)ccc21 (stereo not shown) [IIb-19] | 
> 0.1 | O=C(O)CC1COc2cc(OCc3cccc4c3OCO4)ccc21 (stereo not shown) [IIb-01] | 
> 0.1 | O=C(O)CC1COc2cc(OCc3cc(Br)cc4c3OCO4)ccc21 (stereo not shown) [IIb-02] | 
